For one series, the system named is isolated right atrium. Description: Agonist activity: effect of compound alone on heart rate or force of isolated right atrium. Also noted: species or system guinea pig. The note with it: cumulative additions, 10^-5 to 10^-3 M. The method, then: (§1) The animals were stunned by a blow to the head and the heart was quickly removed and placed in Tyrode's solution (composition in g/L of distilled water: NaCl, 8.00; KCl, 0.20; MgSO4.7 H2 O, 0.10; CaCl2, 0.20; NaH2 PO4, 0.05; NaHCO3, 1.00; glucose, 1.00) at room temperature. All other tissue was carefully trimmed away, leaving only the right atrium. The base of the atrium was attached to a fixed pin in a 50 mL Magnus bath of the overflow type, while the atrial apex was similarly connected to a physiograph (Narco Bio-Systems) via a photoelectric force transducer (Narco Bio-Systems, sensitivity=0.05 g/cm). A 400 mg tension was constantly applied to the tissue. The Magnus bath was surrounded by water maintained at 37° C. with a constant temperature circulating pump. The bath was continually oxygenated (95% O2, 5% CO2) via a sintered glass gas delivery tube directly beneath the tissue support base.
A KB value was not calculated since the utility of these values is contingent upon the presence of competitive inhibition. […] A non-competitive component of the antagonism would be expected to depress the curve. […] An additional experiment adding only 11 to the bath was carried out in an attempt to detect possible interfering agonist activity. […] The reason for this atypical curve is not known.

The target in series [1] is histamine H1-receptor (isolated guinea pig ileum) (Cavia porcellus, UniProt P31389). Description: Histamine H1-receptor antagonism: histamine-induced contraction of isolated guinea pig ileum. The note with it: result in words, 1×10^-6 M. The method, then:
Compounds 11, 17, 18, and 19 were screened for H1 -antihistaminic activity by observing if any significant blockage of histamine-induced contraction of the isolated guinea pig ileum occurred. After sacrificing the guinea pig by a blow to the head, longitudinal segments of the terminal ileum were removed and freed of mesentery and blood vessels. The same apparatus and physiological solution employed in the atrial preparation were used in these experiments. The tissue was loaded with a 500 mg tension and adjustments were made repeatedly until the baseline stabilized at this tension load. Atropine sulfate (1×10^-6 M) was added to block the influence of endogenously stored acetylcholine and the preparation was allowed to equilibrate for 15 minutes before any other compounds were added. The concentration of test compound used was 1×10^-6 M. Visual determination of the absence of significant reduction in histamine-induced contractions of the ileum in the presence and absence of each test compound was interpreted as an absence of H1 -antihistaminic activity. Generally, H1 -antagonism is considered to be potent if significant reduction in ileal contractility occurs with antagonist concentrations less than micromolar.

Series [2] deals with T1, histamine H2-receptor (isolated guinea pig right atrium) (Cavia porcellus, UniProt P47747).
T1 construct: All other tissue was carefully trimmed away, leaving only the right atrium; from tissue; host or cells: isolated right atrium of guinea pig (Hartley strain) heart
The series can be described thus: Histamine H2-receptor antagonism: histamine-induced chronotropic response of isolated guinea pig right atrium. The note with it: for ED50 of histamine (95% CL): histamine ED50 for increase in heart rate, 10^-6 M propranolol; for ED50 of histamine (95% CL) / Slope (95% CL): alone (control) or in presence of 10^-6 M compound, 95% CL in brackets; for slope / shift of the histamine log dose-response curve in presence of compound / histamine H2-receptor antagonist activity: result in words; for histamine H2-receptor antagonist activity: 10^-6 M, guinea pig right atrium; for Slope (95% CL): slope of histamine log dose-response regression line; for ED50 of histamine on the right atrium: histamine alone or with 10^-6 M antagonist, ± as printed in text. The method, then:
Guinea pigs (Hartley strain) of either sex (400-700 g) were allowed at least two weeks acclimation period. The animals were housed two per cage in wire-meshed bottom stainless steel cages in animal quarters maintained on a 12 hour light:12 hour dark cycle with ambient temperature of approximately 24° C. Food (Ralston-Purina guinea pig chow #5025) and water were provided ad libitum.
as §1
Propanolol (1×10^-6 M) was added to each preparation in order to eliminate the influence of endogenously stored catecholamine release. Following the addition of propanolol, test compound was added and the tissue was allowed to equilibrate for 30 minutes.
Solutions of the test compounds were similarly prepared.
A straight line was fitted to the data points of each determination within each group by linear regression analysis. The slope and the ED50 were calculated from the regression line, the slopes and ED50 values of each group were averaged, and the standard deviations were calculated. Calculation of the linear regression gave values for the correlation coefficient (r) slope, average of x values, average of y values, and log ED50. With this information a straight line representing a mean of the data from the separate determinations of each group could be plotted, i.e. a straight line passing through the mean x value and the mean y value and having the mean slope. The 95 percent confidence limits were calculated using the following formula: confidence limits=±ts√N where t=Student's t value, s=standard deviation, and N=number of determinations.

Series [3] deals with H2-receptor (guinea pig isolated right atrium). The note with it: cited from earlier work.
The test system of series [4] is histamine-induced gastric acid secretion. Particulars: dogs; cited from earlier work.
The test system of the next series is peptic ulcers. Particulars: cited from earlier work.
The target in the next series is H2-receptor. Particulars: previously reported; read-out: KB (apparent dissociation constant), previously reported; cited from earlier work.

“Also recorded” adds a separate entry of the source.

T1 sequence (P47747 whole entry): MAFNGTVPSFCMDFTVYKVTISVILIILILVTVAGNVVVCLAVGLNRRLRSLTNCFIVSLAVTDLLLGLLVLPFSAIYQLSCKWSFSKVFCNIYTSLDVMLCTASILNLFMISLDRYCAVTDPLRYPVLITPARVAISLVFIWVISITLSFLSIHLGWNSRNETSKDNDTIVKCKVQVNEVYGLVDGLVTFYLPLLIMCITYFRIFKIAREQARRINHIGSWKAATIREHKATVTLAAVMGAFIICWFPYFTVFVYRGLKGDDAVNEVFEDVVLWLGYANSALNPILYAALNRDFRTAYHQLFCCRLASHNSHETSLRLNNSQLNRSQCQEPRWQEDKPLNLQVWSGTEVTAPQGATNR
histamine H1-receptor (isolated guinea pig ileum), sequence (P31389 whole entry): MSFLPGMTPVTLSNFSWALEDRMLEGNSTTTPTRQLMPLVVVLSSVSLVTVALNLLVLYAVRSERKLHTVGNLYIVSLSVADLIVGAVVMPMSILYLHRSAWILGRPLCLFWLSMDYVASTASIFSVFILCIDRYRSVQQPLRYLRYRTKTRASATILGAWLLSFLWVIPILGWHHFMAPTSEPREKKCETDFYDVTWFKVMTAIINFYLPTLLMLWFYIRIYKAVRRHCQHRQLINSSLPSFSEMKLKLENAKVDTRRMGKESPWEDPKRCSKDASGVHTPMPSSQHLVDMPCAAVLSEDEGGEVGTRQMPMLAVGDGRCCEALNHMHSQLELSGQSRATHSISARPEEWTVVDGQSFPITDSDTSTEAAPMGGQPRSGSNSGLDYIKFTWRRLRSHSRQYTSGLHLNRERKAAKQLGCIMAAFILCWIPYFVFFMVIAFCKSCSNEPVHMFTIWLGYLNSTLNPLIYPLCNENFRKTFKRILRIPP

As for `CNC(=S)N[C@@H]1C[C@H]2CC[C@@H](C1)N2Cc1nc[nH]c1C` [Compound 11, N-Methyl-N'-[8-(5-methylimidazol-4-yl)methyl-1αH,5αH-nortropan-3β-yl]thiourea], in the series with isolated right atrium, the “effect on heart rate or force of isolated right atrium, compound alone” value was “without effect on heart rate or force”. In series [1], the H1-antihistaminic activity entry was “none of these compounds demonstrated significant H1 -antihistiminic activity”. In addition, in series [2] (10^-6 M compound), the “maximum response obtained with histamine in presence of compound” value was found to be 100% and the “slope / shift of the histamine log dose-response curve in presence of compound” value is listed as “significantly steeper (P<0.05) than for metiamide; also recorded: shifted to higher concentrations”. Also, in series [2], the “ED50 of histamine (95% CL)” value was 40.7 (27.5-60.3) × 10^-7 M, the “histamine H2-receptor antagonist activity” value is “active; also recorded: approximately the same antagonist activity as metiamide” and the “Slope (95% CL)” value is reported as 0.99 (0.95-1.03). Further, the “histamine H2-receptor antagonist activity” value in series [2] (listed as β-isomer) is on record as “high H2 -antagonist activity”.
For the compound `CNC(=S)N[C@H]1C[C@H]2CC[C@@H](C1)N2Cc1nc[nH]c1C` [Compound 17, N-Methyl-N'-[8-(5-methylimidazol-4-yl)methyl-1αH,5αH-nortropan-3α-yl]thiourea], the H1-antihistaminic activity entry in series [1] is recorded as “None of these compounds demonstrated significant histamine antagonist activity”. In series [2], the “ED50 of histamine (95% CL)” value is 11.0 (4.37-27.5) × 10^-7 M, the “histamine H2-receptor antagonist activity” value was “without any significant activity; also recorded: None of these compounds demonstrated significant histamine antagonist activity” and the “Slope (95% CL)” value was 0.64 (0.18-1.10).
On the same counts, the results for `CNC(=NC#N)N[C@H]1C[C@H]2CC[C@@H](C1)N2Cc1nc[nH]c1C` [Compound 18, N"-Cyano-N-methyl-N'-[8-(5-methylimidazol-4-yl)methyl-1αH,5αH-nortropan-3α-yl]guanidine] are “None of these compounds demonstrated significant histamine antagonist activity”, 11.0 (5.01-24.0) × 10^-7 M, “without significant activity; also recorded: None of these compounds demonstrated significant histamine antagonist activity” and 0.64 (0.18-1.10).
On to `CNC(=NC#N)N[C@@H]1C[C@H]2CC[C@@H](C1)N2Cc1nc[nH]c1C` [Compound 19, N"-Cyano-N-methyl-N'-[8-(5-methylimidazol-4-yl)methyl-1αH,5αH-nortropan-3β-yl]guanidine], for which the H1-antihistaminic activity result in series [1] is listed as “None of these compounds demonstrated significant histamine antagonist activity”. Moreover, in series [2], the “ED50 of histamine (95% CL)” value is on record as 6.92 (0.22-138.0) × 10^-7 M, the “histamine H2-receptor antagonist activity” value is recorded as “without significant activity; also recorded: None of these compounds demonstrated significant histamine antagonist activity” and the “Slope (95% CL)” value is 0.58 (0.23-0.93).
On to `CNC(=C[N+](=O)[O-])NCCSCc1ccc(CN(C)C)o1` [Ranitidine], for which the H2 antagonism result in series [3] is “competitive antagonist, more potent than cimetidine”. Further, the “prevention of histamine-induced gastric acid secretion” value in series [4] is given as “more potent than cimetidine”.
With `CN/C(=N/CCSCc1nc[nH]c1C)NC#N` [cimetidine, reference compound], in series [2], the “ED50 of histamine (95% CL)” value is on record as 49.0 (43.7-55.0) × 10^-7 M, the “ED50 of histamine on the right atrium” value is reported as 49.0±12.0 ×10^-7 M, the “histamine H2-receptor antagonist activity” value was “significant antagonism of the chronotropic effect of histamine” and the “Slope (95% CL)” value is 0.67 (0.28-1.06). Further, the “safety in clinical use” value in the series with peptic ulcers is recorded as “generally a safe agent”.
For `NCCc1c[nH]cn1` [histamine, reference compound], in series [2], the “Slope (95% CL)” value is on record as 0.63 (0.50-0.76).
For the compound `CNC(=S)NCCSCc1nc[nH]c1C` [metiamide, reference compound], on H2-receptor, the Kb was 920 nM. Moreover, the Kb in series [2] (KB=[B]/(dose ratio-1), 10^-6 M antagonist, read-out: KB (apparent dissociation constant)) came to 200 nM. In series [2], the “ED50 of histamine (95% CL)” value is recorded as 49.0 (30.9-77.6) × 10^-7 M, the “ED50 of histamine on the right atrium” value was 49.0±12.0 ×10^-7 M, the “histamine H2-receptor antagonist activity” value was “significant antagonism of the chronotropic effect of histamine” and the “Slope (95% CL)” value is reported as 0.47 (0.41-0.53). The “slope / shift of the histamine log dose-response curve in presence of compound” value in series [2] (10^-6 M compound) is on record as “parallel shift of the dose-response curves of histamine”. Besides, the “healing of peptic ulcers” value in the series on peptic ulcers (clinical trials) is listed as “effective in promoting the healing of peptic ulcers”. For the same compound, in the series with peptic ulcers, the “safety in clinical use” value is recorded as “found to produce agranulocytosis”.

The record behind these values is patent publication US4432983A (Research Corporation, priority 1981, dated 1984).
